Measured values: ChEMBL document CHEMBL3997812, “The induction of oxidative stress in cervix carcinoma cells by levoglucosenone derived 4-S-salicyl derivative and (1-4)-S-thio-disaccharides. Part 4” (2017)
Active and inactive are the calls of the source. The rule behind the calls is not given here.

Assays:
HeLa [1] = assay: Geno-toxicity in human HeLa cells assessed as induction of DNA damage by measuring increase in incomplete excision repair sites at pH 12.1 after 1 hr by comet assay; format: functional, cell-based
HeLa [2] = assay: Upregulation of GPX1 mRNA expression in human HeLa cells after 4 hrs by RT-PCR method; format: functional, cell-based
HeLa [3] = assay: Effect on SOD2 mRNA expression in human HeLa cells after 4 hrs by RT-PCR method relative to control; format: functional
HeLa [4] = assay: Upregulation of CAT mRNA expression in human HeLa cells after 4 hrs by RT-PCR method; format: functional, cell-based
HeLa [5] = assay: Effect on NOX4 mRNA expression in human HeLa cells after 4 hrs by RT-PCR method relative to control; format: functional
HeLa [6] = assay: Geno-toxicity in human HeLa cells assessed as induction of DNA damage by measuring increase in single strand breaks after 1 hr by comet assay; format: functional, cell-based
HeLa [7] = assay: Effect on GPX4 mRNA expression in human HeLa cells after 4 hrs by RT-PCR method relative to control; format: functional
HeLa [8] = assay: Induction of nitric oxide production in human HeLa cells after 1 hr by DAF2-DA probe based fluorescence assay; format: functional, cell-based
HeLa [9] = assay: Geno-toxicity in human HeLa cells assessed as induction of DNA damage by measuring increase in double stranded DNA breaks at 5.6 to 69 uM after 1 hr by neutral comet assay; format: functional, cell-based
HeLa [10] = assay: Induction of DNA damage in human HeLa cells after 1 hr in presence of antioxidant epicatechin by alkaline comet assay relative to control; format: functional, cell-based
HeLa [11] = assay: Induction of DNA damage in human HeLa cells incubated for 1 hr followed by repair incubation for 120 mins by alkaline comet assay; format: functional, cell-based
Escherichia coli [12] = assay: Induction of Escherichia coli pUC19 DNA damage assessed as increase in linear DNA forms after 1 hr by agarose gel electrophoresis
HeLa [13] = assay: Induction of DNA damage in human HeLa cells assessed as increase in DNA lessions at 4 degreeC incubation for 120 mins by alkaline comet assay relative to control; format: functional, cell-based
HeLa [14] = assay: Effect on HMOX mRNA expression in human HeLa cells after 4 hrs by RT-PCR method relative to control; format: functional
HeLa [15] = assay: Induction of DNA damage in human HeLa cells after 1 hr in presence of antioxidant vitamin E by alkaline comet assay relative to control; format: functional, cell-based
Escherichia coli [16] = assay: Induction of Escherichia coli pUC19 DNA damage assessed as decrease in supercoiled covalently closed circular DNA forms after 1 hr by agarose gel electrophoresis
Escherichia coli [17] = assay: Induction of Escherichia coli pUC19 DNA damage assessed as increase in open circular DNA forms after 1 hr by agarose gel electrophoresis
HeLa [18] = assay: Induction of ROS production in human HeLa cells after 1 hr by CM-H2DCFDA probe based fluorescence assay; format: functional, cell-based
HeLa [19] = assay: Effect on NOX5 mRNA expression in human HeLa cells after 4 hrs by RT-PCR method relative to control; format: functional
HeLa [20] = assay: Induction of DNA damage in human HeLa cells assessed as increase in DNA lessions at 37 degreeC incubation for 120 mins by alkaline comet assay relative to control; format: functional, cell-based
HeLa [21] = assay: Induction of oxidative stress in human HeLa cells assessed as reduction in GSH level after 1 hr by MBCL probe based flow cytometry relative to control; format: functional; design: scale not given: the % may be the effect or the level left
HeLa [22] = assay: Effect on GCLM mRNA expression in human HeLa cells after 4 hrs by RT-PCR method relative to control; format: functional
HeLa [23] = assay: Effect on NCOA7 mRNA expression in human HeLa cells after 4 hrs by RT-PCR method relative to control; format: functional
HeLa [24] = assay: Effect on TXN mRNA expression in human HeLa cells after 4 hrs by RT-PCR method relative to control; format: functional
HeLa [25] = assay: Effect on NQO1 mRNA expression in human HeLa cells after 4 hrs by RT-PCR method relative to control; format: functional
HeLa [26] = assay: Geno-toxicity in human HeLa cells assessed as induction of DNA damage after 1 hr by alkaline comet assay; format: functional, cell-based
HeLa [27] = assay: Induction of oxidative stress in human HeLa cells assessed as reduction in thioredoxin reductase at IC50 after 14 hrs by DTNB/bradford reagent based colorimetric method; format: functional; design: scale not given: the % may be the effect or the level left
HeLa [28] = assay: Effect on SOD1 mRNA expression in human HeLa cells after 4 hrs by RT-PCR method relative to control; format: functional
HeLa [29] = assay: Geno-toxicity in human HeLa cells assessed as induction of DNA damage by measuring increase in double stranded DNA breaks at 17 to 137 uM after 1 hr by neutral comet assay; format: functional, cell-based
HeLa [30] = assay: Geno-toxicity in human HeLa cells assessed as induction of DNA damage by measuring increase in double stranded DNA breaks at 69 to 550 uM after 1 hr by neutral comet assay; format: functional, cell-based

Structure (SMILES) | Activity (HeLa [1]) | Activity (HeLa [2]) | fold change (FC) (HeLa [3]) | Activity (HeLa [4]) | fold change (FC) (HeLa [5]) | Activity (HeLa [6]) | fold change (FC) (HeLa [7]) | Activity (HeLa [8]) | Activity (HeLa [10]) | Activity (HeLa [11]) | Activity (Escherichia coli [12]) | Activity (HeLa [13]) | fold change (FC) (HeLa [14]) | Activity (HeLa [15]) | Activity (Escherichia coli [16]) | Activity (Escherichia coli [17]) | Activity (HeLa [18]) | fold change (FC) (HeLa [19]) | Activity (HeLa [20]) | Activity (HeLa [21]) | further results
CC(=O)OC[C@H]1O[C@@H](S[C@@H]2CC(=O)[C@@H]3OC[C@H]2O3)[C@H](OC(C)=O)[C@@H](OC(C)=O)[C@@H]1OC(C)=O | Dose-dependent effect | Active | 1.56 | Active | 0.58 | Dose-dependent effect | 1.15 | inactive | inactive | inactive | inactive | inactive | 20.29 | inactive | inactive | inactive | Active | 0.53 | Active | 20% | Activity (HeLa [9]): inactive; fold change (FC) (HeLa [22]): 2.21; fold change (FC) (HeLa [23]): 0.43; fold change (FC) (HeLa [24]): 0.76; fold change (FC) (HeLa [25]): 1.34; Activity (HeLa [26]): Dose-dependent effect; Activity (HeLa [27]): 18.3%; fold change (FC) (HeLa [28]): 1.18
O=C(O)c1ccccc1S[C@@H]1CC(=O)[C@@H]2OC[C@H]1O2 | Dose-dependent effect | Active | 1.28 | Active | 1.13 | Dose-dependent effect | 0.56 | inactive | inactive | inactive | inactive | inactive | 3.42 | inactive | inactive | inactive | Active | 0.56 | Active | Active | Activity (HeLa [29]): inactive; fold change (FC) (HeLa [22]): 1.56; fold change (FC) (HeLa [23]): 0.51; fold change (FC) (HeLa [24]): 0.93; fold change (FC) (HeLa [25]): 1.61; Activity (HeLa [26]): Dose-dependent effect; Activity (HeLa [27]): 7.5%; fold change (FC) (HeLa [28]): 1.12
CC(=O)OC[C@H]1O[C@@H](S[C@@H]2CC(=O)[C@@H]3OC[C@H]2O3)[C@H](OC(C)=O)[C@@H](OC(C)=O)[C@H]1OC(C)=O | Dose-dependent effect | Active | 1.26 | Active | 0.74 | Dose-dependent effect | 0.75 | inactive | inactive | inactive | inactive | inactive | 10.53 | inactive | inactive | inactive | Active | 0.68 | Active | 60% | Activity (HeLa [30]): inactive; fold change (FC) (HeLa [22]): 1.77; fold change (FC) (HeLa [23]): 0.37; fold change (FC) (HeLa [24]): 1.07; fold change (FC) (HeLa [25]): 1.36; Activity (HeLa [26]): Dose-dependent effect; Activity (HeLa [27]): 9.2%; fold change (FC) (HeLa [28]): 1.07
O=C1C[C@@H](S[C@@H]2O[C@H](CO)[C@@H](O)[C@H](O)[C@H]2O)[C@H]2CO[C@@H]1O2 | Dose-dependent effect | Active | 1.25 | Active | 0.68 | Dose-dependent effect | 0.56 | inactive | inactive | inactive | inactive | inactive | 7.29 | inactive | inactive | inactive | Active | 0.34 | Active | Active | Activity (HeLa [30]): inactive; fold change (FC) (HeLa [22]): 1.95; fold change (FC) (HeLa [23]): 0.35; fold change (FC) (HeLa [24]): 0.94; fold change (FC) (HeLa [25]): 1.27; Activity (HeLa [26]): Dose-dependent effect; Activity (HeLa [27]): 3.86%; fold change (FC) (HeLa [28]): 1.16
